Numbers after ± are expanded uncertainties.
Tests used:
[1] = mn = molality of the nth substance listed, in mol/kg; conditions: 101 kPa, Liquid, Vibrating tube method, m2 = 0
[2] = 101 kPa, Liquid, Vibrating tube method

CN(C)C=O [dimethylformamide] + O=S(=O)([O-])C(F)(F)F.[Na+]
mass density ([1]; 283.15 K): 958.07 ± 0.3 kg/m3 | mass density ([1]; 293.15 K): 948.56 ± 0.3 kg/m3 | mass density ([1]; 298.15 K): 943.79 ± 0.31 kg/m3 | mass density ([1]; 303.15 K): 939.01 ± 0.31 kg/m3 | mass density ([1]; 313.15 K): 929.43 ± 0.31 kg/m3 | mass density ([1]; 323.15 K): 919.81 ± 0.31 kg/m3 | mass density ([1]; 333.15 K): 910.11 ± 0.31 kg/m3

CC(=O)N(C)C [N,N-dimethylethanamide] + O=S(=O)([O-])C(F)(F)F.[Na+]
mass density ([1]; 283.15 K): 950.04 ± 0.3 kg/m3 | mass density ([1]; 293.15 K): 940.83 ± 0.3 kg/m3 | mass density ([1]; 298.15 K): 936.22 ± 0.3 kg/m3 | mass density ([1]; 303.15 K): 931.61 ± 0.3 kg/m3 | mass density ([1]; 313.15 K): 922.35 ± 0.3 kg/m3 | mass density ([1]; 323.15 K): 913.08 ± 0.3 kg/m3 | mass density ([1]; 333.15 K): 903.76 ± 0.3 kg/m3

CC(=O)N(C)C [N,N-dimethylethanamide]
mass density ([2]; 283.15 K): 950.04 ± 0.3 kg/m3 | mass density ([2]; 293.15 K): 940.83 ± 0.3 kg/m3 | mass density ([2]; 298.15 K): 936.22 ± 0.3 kg/m3 | mass density ([2]; 303.15 K): 931.61 ± 0.3 kg/m3 | mass density ([2]; 313.15 K): 922.35 ± 0.3 kg/m3 | mass density ([2]; 323.15 K): 913.08 ± 0.3 kg/m3 | mass density ([2]; 333.15 K): 903.76 ± 0.3 kg/m3

CN(C)C=O [dimethylformamide]
mass density ([2]; 283.15 K): 958.07 ± 0.3 kg/m3 | mass density ([2]; 293.15 K): 948.56 ± 0.3 kg/m3 | mass density ([2]; 298.15 K): 943.79 ± 0.31 kg/m3 | mass density ([2]; 303.15 K): 939.01 ± 0.31 kg/m3 | mass density ([2]; 313.15 K): 929.43 ± 0.31 kg/m3 | mass density ([2]; 323.15 K): 919.81 ± 0.31 kg/m3 | mass density ([2]; 333.15 K): 910.11 ± 0.31 kg/m3
